According to patent US20170327598A1, “SINGLE DOMAIN ANTIBODIES DIRECTED AGAINST INTRACELLULAR ANTIGENS” (SINGH MOLECULAR MEDICINE, LLC, priority 2014, published 2017):
Values joined by “and” are separate entries in the source; they are usually repeats but may differ in a detail not shown here. Identical values can stand only once.

Key:
[1] = tested on: VEGF-A production in ARPE-19 cells; assay: VEGF-A ELISA in ARPE-19 retinal cells, Experiment 2;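 as to all read-outs here: confluent ARPE-19 cells in 96-well plates, VEGF-A in culture supernatant quantified by ELISA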; assay type: cell-based, human; conditions: for Result (pg VEGF-A per mL): single reads; for pg VEGF-A per mL: based on collecting 0.1 ml of supernatant; for Mean (pg VEGF-A per mL): mean of Adj. Result, Wells 1-3; for Mean (pg VEGF-A per μg protein): mean of Wells 1-3; for Mean (pg VEGF-A per μg protein) / % Control: Experiment 2; for % Control: normalized for protein; for Mean Result (pg VEGF-A per mL) / pg VEGF-A per μg protein / Adj. Result (pg VEGF-A per mL): per well; for Adj. Result (pg VEGF-A per mL): adjusted for dilution
[2] = tested on: MDA-MB-468 cells; assay: MTT proliferation assay, MDA-MB-468; assay type: cell-based, human; conditions: MDA-MB-468, 72 hours
[3] = tested on: PANC-1 cells; assay: Internalization of sdAb, anti-His tag staining, PANC-1; assay type: cell-based; conditions: 18 hours
Protocol: An anti-HIV-1 Reverse Transcriptase (RT) sdAb was used as a negative control.
The slides were incubated for 18 hours after sdAb addition. The chambers were briefly rinsed with media and fixed in ice-cold methanol for 5-10 min. The chambers were then dried and stained with a fluorescent anti-His tag antibody (1:200)(Novus Biologicals, Littleton, Colo.) for 45 min at room temperature. The slides were rinsed in PBS for 5 minutes and mounted.

[4] = tested on: human STAT3; assay: Biacore 3000 protein binding, STAT3 ligand immobilized (Example 22); conditions: sdAb as analyte
[5] = tested on: GloResponse SIE-luc2P/HEK 293 cells; assay: BCA protein concentration of reporter cells run in parallel; assay type: cell-based; conditions: highest concentration

## Anti-STAT3 VHH13: anti-STAT3 single domain antibody, SEQ ID NO:3; bacterially produced form referred to as SBT-100
[1]; 10 μg/well, 12 Hr
  Result (pg VEGF-A per mL): 29.66 pg VEGF-A per mL and 31.2 pg VEGF-A per mL and 24.52 pg VEGF-A per mL and 24.31 pg VEGF-A per mL and 27.98 pg VEGF-A per mL and 29.18 pg VEGF-A per mL
[1]; 10 μg/well, 24 Hr
  % Negative Control: 1142%
  pg VEGF-A per mL: 28 pg VEGF-A per mL and 34.8 pg VEGF-A per mL and 42.4 pg VEGF-A per mL
  Mean (pg VEGF-A per mL): 350.7 pg VEGF-A per mL
  Mean (pg VEGF-A per μg protein): 5.290 pg VEGF-A per μg protein
  % Control: 119.8%
  Mean Result (pg VEGF-A per mL): 55.95 pg VEGF-A per mL and 69.61 pg VEGF-A per mL and 84.84 pg VEGF-A per mL
  pg VEGF-A per μg protein: 4.4 pg VEGF-A per μg protein and 5.4 pg VEGF-A per μg protein and 6.1 pg VEGF-A per μg protein
  Adj. Result (pg VEGF-A per mL): 279.74 pg VEGF-A per mL and 348.06 pg VEGF-A per mL and 424.20 pg VEGF-A per mL
  Result (pg VEGF-A per mL): 57.85 pg VEGF-A per mL and 54.04 pg VEGF-A per mL and 72.69 pg VEGF-A per mL and 66.53 pg VEGF-A per mL and 84.97 pg VEGF-A per mL and 84.71 pg VEGF-A per mL
[1]; 10 μg/well, 48 Hr
  % Negative Control: 99.3%
  pg VEGF-A per mL: 83.7 pg VEGF-A per mL and 95.6 pg VEGF-A per mL and 98.3 pg VEGF-A per mL
  Mean (pg VEGF-A per mL): 925.1 pg VEGF-A per mL
  Mean (pg VEGF-A per μg protein): 13.696 pg VEGF-A per μg protein
  % Control: 104.6%
  Mean Result (pg VEGF-A per mL): 191.17 pg VEGF-A per mL and 196.56 pg VEGF-A per mL and 167.34 pg VEGF-A per mL
  pg VEGF-A per μg protein: 11.8 pg VEGF-A per μg protein and 14 pg VEGF-A per μg protein and 15.3 pg VEGF-A per μg protein
  Adj. Result (pg VEGF-A per mL): 955.85 pg VEGF-A per mL and 982.81 pg VEGF-A per mL and 836.69 pg VEGF-A per mL
  Result (pg VEGF-A per mL): 194.18 pg VEGF-A per mL and 188.16 pg VEGF-A per mL and 194.77 pg VEGF-A per mL and 198.36 pg VEGF-A per mL and 158.85 pg VEGF-A per mL and 175.83 pg VEGF-A per mL
[1]; 100 μg/mL, 12 hour treatment
  VEGF-A as % of control: 20.1%
[1]; 100 μg/mL, 24 hour treatment
  VEGF-A as % of control: 7.5%
[1]; 100 μg/mL, 48 hours
  pg VEGF-A/m protein as % of the negative control: 11%
[1]; 100 μg/well, 12 Hr
  % Negative Control: 18.5%
  pg VEGF-A per mL: 2.4 pg VEGF-A per mL and 2.3 pg VEGF-A per mL
  Mean (pg VEGF-A per mL): 23.8 pg VEGF-A per mL
  Mean (pg VEGF-A per μg protein): 0.4 pg VEGF-A per μg protein
  Mean Result (pg VEGF-A per mL): 4.86 pg VEGF-A per mL and 4.58 pg VEGF-A per mL
  pg VEGF-A per μg protein: 0.4 pg VEGF-A per μg protein
  Adj. Result (pg VEGF-A per mL): 24.27 pg VEGF-A per mL and 22.91 pg VEGF-A per mL
  Result (pg VEGF-A per mL): 5.09 pg VEGF-A per mL and 4.62 pg VEGF-A per mL and 5.3 pg VEGF-A per mL and 4.41 pg VEGF-A per mL and 4.83 pg VEGF-A per mL and 4.33 pg VEGF-A per mL
[1]; 100 μg/well, 24 Hr
  % Negative Control: 6.3%
  Mean (pg VEGF-A per mL): 19.2 pg VEGF-A per mL
  Mean (pg VEGF-A per μg protein): 0.329 pg VEGF-A per μg protein
  % Control: 7.5%
  pg VEGF-A per μg protein: 0.5 pg VEGF-A per μg protein and 0.3 pg VEGF-A per μg protein
[1]; 100 μg/well, 48 Hr
  % Negative Control: 3.7%
  pg VEGF-A per mL: 3.9 pg VEGF-A per mL
  Mean (pg VEGF-A per mL): 35.6 pg VEGF-A per mL
  Mean (pg VEGF-A per μg protein): 1.458 pg VEGF-A per μg protein
  % Control: 11.1%
  Mean Result (pg VEGF-A per mL): 5.85 pg VEGF-A per mL and 7.78 pg VEGF-A per mL and 7.76 pg VEGF-A per mL
  pg VEGF-A per μg protein: 1.4 pg VEGF-A per μg protein and 1.6 pg VEGF-A per μg protein
  Adj. Result (pg VEGF-A per mL): 29.23 pg VEGF-A per mL and 38.88 pg VEGF-A per mL and 38.78 pg VEGF-A per mL
  Result (pg VEGF-A per mL): 8.03 pg VEGF-A per mL and 5.86 pg VEGF-A per mL and 5.83 pg VEGF-A per mL and 7.83 pg VEGF-A per mL and 7.72 pg VEGF-A per mL and 7.49 pg VEGF-A per mL
[2]; 0.39 μg/ml
  Mean Abs: 0.311
[2]; 3.13 μg/ml
  % Inhibition: 11.9%
  Mean Abs: 0.223
[2]; 6.25 μg/ml
  % Inhibition: 9.1%
  Mean Abs: 0.230
[2]; 25 μg/ml
  % Inhibition: 73.5%
  Mean Abs: 0.067
[2]; 50 μg/ml
  % Inhibition: 83.4%
  Mean Abs: 0.042
[2]; 100 μg/ml
  % Inhibition: 85.0%
  Mean Abs: 0.038
[2]; 200 μg/ml
  % Inhibition: 84.4%
  Mean Abs: 0.040
[3]
  internalization, anti-His tag staining: positive cytoplasmic staining
[4]
  binding to STAT3 ligand: bound
[5]
  decrease in protein: approximately 2 fold
